Data taken from patent US10722520B2, “Heterocyclic compounds and their use in preventing or treating bacterial infections” (MUTABILIS, priority 2016, dated 2020).
Read-outs that look alike come from different tables or passages of the source.

What was measured:
CMY-37 = CMY-37 (Citrobacter freundii, UniProt P05193); conditions: read-out: IC50 β-lactamase CMY-37
K. pneumoniae 6299 [1] = experiment: MIC of compound alone, broth microdilution; assay type: cell-based; conditions: strain 6299, compound alone
How it was run: (§1)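 Growth inhibition was scored by eye after 16-20 h at 35° C (room air), with bacteria from log phase seeded at 5×10^5 cfu/mL final in cation-adjusted Mueller-Hinton medium.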

E. coli 190317 [2] = experiment: MIC of compound alone, broth microdilution; assay type: cell-based; conditions: strain 190317, compound alone
How it was run: as §1

P. aeruginosa CIP107051 [3] = experiment: MIC of compound alone, broth microdilution; assay type: cell-based; conditions: strain CIP107051, compound alone
How it was run: as §1

E. cloacae P99 [4] = experiment: MIC of compound alone, broth microdilution; assay type: cell-based; conditions: strain P99, compound alone
How it was run: as §1

K. pneumoniae BAA-1898 [5] = experiment: MIC of compound alone, broth microdilution; assay type: cell-based; conditions: strain BAA-1898, compound alone
How it was run: as §1

TEM-1 = TEM-1 (Escherichia coli, UniProt P62593)
AmpC (P99) = AmpC (P99) (Enterobacter cloacae, UniProt P05364); experiment: biochemical
OXA-11 = OXA-11 (Pseudomonas aeruginosa, UniProt Q06778)
KPC-2 = KPC-2 (Klebsiella pneumoniae, UniProt Q9F663)
OXA-1 = OXA-1 (Escherichia coli, UniProt P13661)
SHV-1 = SHV-1 (Klebsiella pneumoniae, UniProt P0AD64)
AmpC (PAE) = AmpC (PAE) (Pseudomonas aeruginosa, UniProt P24735); experiment: biochemical
CTX-M-15 = CTX-M-15 (Escherichia coli, UniProt Q9EXV5)
OXA-15 [6] = biological target: T1, OXA-15 (Pseudomonas aeruginosa, UniProt Q51574); experiment: biochemical
OXA-48 = OXA-48 (Klebsiella pneumoniae, UniProt Q6XEC0)
K. pneumoniae 6299 [7] = experiment: MIC of ceftazidime (CAZ) at fixed concentration of compound (synergy), broth microdilution; assay type: cell-based; conditions: strain 6299; MIC of CAZ, compound fixed at 4 μg/mL
Description: (§2) Log phase bacterial suspensions were adjusted to a final density of 5×10^5 cfu/mL in cation-adjusted Mueller-Hinton broth (Becton-Dickinson) and added to each well (98 μL). Microplates were incubated for 16-20 h at 35° C. in ambient air. The MIC of the compounds was defined as the lowest concentration of said compounds that prevented bacterial growth as read by visual inspection.

E. coli 190317 [8] = experiment: as above; assay type: cell-based; conditions: strain 190317; MIC of CAZ, compound fixed at 4 μg/mL
Description: as §2

P. aeruginosa CIP107051 [9] = experiment: as above; assay type: cell-based; conditions: strain CIP107051; MIC of CAZ, compound fixed at 4 μg/mL
Description: as §2

E. cloacae P99 [10] = experiment: as above; assay type: cell-based; conditions: strain P99; MIC of CAZ, compound fixed at 4 μg/mL
Description: as §2

K. pneumoniae BAA-1898 [11] = experiment: as above; assay type: cell-based; conditions: strain BAA-1898; MIC of CAZ, compound fixed at 4 μg/mL
Description: as §2

OXA-15 [12] = biological target: T1, OXA-15; conditions: read-out: IC50 β-lactamase OXA-15; class (D); nitrocefin 200 μM, 30-min pre-incubation, enzyme 0.4 nM
[13] = read-out: IC50 β-lactamase TEM-1, class (A), nitrocefin 200 μM, 30-min pre-incubation, enzyme 0.1 nM
[14] = read-out: IC50 β-lactamase OXA-11, class (D), nitrocefin 200 μM, 30-min pre-incubation, enzyme 1.2 nM
[15] = read-out: IC50 β-lactamase KPC-2, class (A), nitrocefin 200 μM, 30-min pre-incubation, enzyme 1 nM
[16] = read-out: IC50 β-lactamase OXA-1, class (D), nitrocefin 200 μM, 30-min pre-incubation, enzyme 0.2 nM
[17] = read-out: IC50 β-lactamase SHV-1, class (A), nitrocefin 200 μM, 30-min pre-incubation, enzyme 0.075 nM
[18] = read-out: IC50 β-lactamase CTX-M-15, class (A), nitrocefin 200 μM, 30-min pre-incubation, enzyme 0.4 nM
[19] = read-out: IC50 β-lactamase OXA-48, class (D), nitrocefin 200 μM, 30-min pre-incubation, enzyme 0.3 nM

| Molecule | MIC compounds of the invention alone (K. pneumoniae 6299 [1]) [µg/mL] | MIC compounds of the invention alone (E. coli 190317 [2]) [µg/mL] | MIC compounds of the invention alone (P. aeruginosa CIP107051 [3]) [µg/mL] | MIC compounds of the invention alone (E. cloacae P99 [4]) [µg/mL] | MIC compounds of the invention alone (K. pneumoniae BAA-1898 [5]) [µg/mL] | IC50 (TEM-1; [13]) [nM] | IC50 (OXA-11; [14]) [nM] | IC50 (KPC-2; [15]) [nM] | MIC combination of CAZ and compounds of the invention at 4 μg/mL (K. pneumoniae 6299 [7]) [µg/mL] | MIC combination of CAZ and compounds of the invention at 4 μg/mL (E. coli 190317 [8]) [µg/mL] | MIC combination of CAZ and compounds of the invention at 4 μg/mL (P. aeruginosa CIP107051 [9]) [µg/mL] | MIC combination of CAZ and compounds of the invention at 4 μg/mL (E. cloacae P99 [10]) [µg/mL] | MIC combination of CAZ and compounds of the invention at 4 μg/mL (K. pneumoniae BAA-1898 [11]) [µg/mL] | IC50 (OXA-1; [16]) [nM] | IC50 (SHV-1; [17]) [nM] | IC50 (CTX-M-15; [18]) [nM] | IC50 (OXA-15 [12]) [nM] | IC50 (OXA-48; [19]) [nM] | other results |
| --- | --- | --- | --- | --- | --- | --- | --- | --- | --- | --- | --- | --- | --- | --- | --- | --- | --- | --- | --- |
| O=C(Nc1nncs1)c1ccn(C2=CC3CN(C2)C(=O)N3OS(=O)(=O)[O-])n1.[Na+] (stereo not shown) [Example 84, sodium [7-oxo-3-[3-(1,3,4-thiadiazol-2-ylcarbamoyl)pyrazol-1-yl]-1,6-diazabicyclo[3.2.1]oct-3-en-6-yl]sulfate] |  |  |  |  |  |  |  |  |  |  |  |  |  |  |  |  |  |  | IC50 (CMY-37): 20 nM; MIC (K. pneumoniae 6299 [1]; Klebsiella pneumoniae, read-out: MIC compounds of the invention alone): > 32 µg/mL; MIC (E. coli 190317 [2]; Escherichia coli, read-out: MIC compounds of the invention alone): > 32 µg/mL; MIC (P. aeruginosa CIP107051 [3]; Pseudomonas aeruginosa, read-out: MIC compounds of the invention alone): > 32 µg/mL; MIC (E. cloacae P99 [4]; Enterobacter cloacae, read-out: MIC compounds of the invention alone): > 32 µg/mL; MIC (K. pneumoniae BAA-1898 [5]; Klebsiella pneumoniae, BAA1898, read-out: MIC compounds of the invention alone): > 32 µg/mL; IC50 (TEM-1): 0.78 nM; IC50 (AmpC (P99)): 25 nM; IC50 (OXA-11): 22 nM; IC50 (KPC-2): 8.5 nM; IC50 (OXA-1): 150 nM; IC50 (SHV-1): 2.7 nM; IC50 (AmpC (PAE)): 160 nM; IC50 (CTX-M-15): 1 nM; IC50 (OXA-15 [6]): 98 nM; IC50 (OXA-48): 7.2 nM |
| sodium (7-oxo-3-(3-(methoxycarbamoyl)-pyrazol-1-yl)-1,6-diazabicyclo[3.2.1]oct-3-en-6-yl) sulfate and sodium (7-oxo-3-(5-(methoxycarbamoyl)-pyrazol-1-yl)-1,6-diazabicyclo[3.2.1]oct-3-en-6-yl) sulfate [Example 27] | 32 | 8 | >32 | 16 | 32 | 1.1 | 69 | 10 | 0.5 | 0.25 | 16 | 2 | 16 | 130 | 4.8 | 1.2 | 110 | 6.1 |  |
| sodium [3-[3-[2-[tert-butyl(dimethyl)silyl]oxyethyl]pyrazol-1-yl]-7-oxo-1,6-diazabicyclo[3.2.1]oct-3-en-6-yl]sulfate [Example 69] | 32 | 4 | >32 | 32 | 32 | 0.61 | 120 | 32 | 1 | ≤0.25 | 8 | 1 | 64 | 310 | 2.3 | 0.95 | 230 | 14 |  |
